Source: US20240335452A1, “COMPOSITIONS AND METHODS OF COMBINATION THERAPY FOR TARGETING LYMPHOMA” (Cullgen (Shanghai), Inc., priority 2021, published 2024)

Assays:
IKZF1 or IKZF3 = details: more potent than older IMiDs; stated as 'may be'; cited from earlier work
OCI-LY7 cells = test: Cell viability assay (CellTiter-Glo) in OCI-LY7 cells; assay type: cell-based, human
Procedure: (§1) Experiments were performed in cultured human cells to assess the efficacy of combined EZH2 inhibitor and immunomodulatory drug (e.g., an IMiD) treatment using an EZH2-mutant DLBCL cell line, SU-DHL-10, and an EZH2-wild type line, OCI-LY7. Cells were purchased from Nanjing Cobioer Biotechnology. SU-DHL-10 and OCI-LY7 cells were cultured at 37° C. with 5% CO2 in RPMI 1640 Medium supplemented with 10% fetal bovine serum. Cells were authenticated using the short tandem repeat (STR) assays. Mycoplasma test results were negative.
(§2) The cultured cells were seeded at a density of 5000 cells per well in 96-well assay plates and treated with test compounds at 10 μM followed by a 11-point 3-fold serial dilution or an 8-point 10-fold serial dilution. Cell viability was determined after 5 days, using the CellTiter-Glo assay kit (Promega) according to the manufacturer's instructions. The dose-response curves were determined and IC50 values were calculated using the GraphPad Prism software following a nonlinear regression (least squares fit) method. Each data point in the figure represents the mean values of at least two technical replicates ± standard deviation.
(§3) Cells were treated with EZH2 inhibitors in the presence of IMiDs at concentrations sufficient to induce degradation of IKZF1 and IKZF3 but not enough to kill cells. CC-122 and CC-220 were tested at a concentration of 1 μM; CC-92480 and CFT7455 were tested at a concentration of 1 nM; and CC-99282 was tested at a concentration of 10 nM.

SU-DHL-10 cells [1] = test: Cell viability assay (CellTiter-Glo) in SU-DHL-10 cells; assay type: cell-based, human; details: SU-DHL-10, single agent, 5 days
Procedure: as §1, §2, §3

SU-DHL-10 cells [2] = test: as above; assay type: cell-based, human

SMILES	potency with regard to IKZF1 or IKZF3 degradation relative to older IMiDs (IKZF1 or IKZF3) [fold]	cell viability (sensitivity of the cells to the compound in combination) (OCI-LY7 cells; OCI-LY7, in the presence of 100 nM CPI-0209)	cell viability (sensitivity of the cells to the compound in combination) (OCI-LY7 cells; OCI-LY7, in the presence of 100 nM SHR2554)	cell viability, response of the cells to the single agent (OCI-LY7 cells; OCI-LY7, single agent, 5 days)	cell viability, response of the cells to the single agent (SU-DHL-10 cells [1])	cell viability (sensitivity of the cells to the compound in combination) (SU-DHL-10 cells [2]; SU-DHL-10, in the presence of 100 nM CPI-0209)	cell viability (sensitivity of the cells to the compound in combination) (SU-DHL-10 cells [2]; SU-DHL-10, in the presence of 100 nM SHR2554)
N#Cc1ccc(N2CCN(Cc3ccc(COc4cccc5c4CN([C@H]4CCC(=O)NC4=O)C5=O)cc3)CC2)c(F)c1 [CC-92480, mezigdomide]	1000	–	–	–	–	–	–
O=C1CC[C@H](N2C(=O)c3cccc(NCc4ccc(CN5CC(N6CCOCC6)C5)cc4F)c3C2=O)C(=O)N1 [CC-99282, (S)-2-(2,6-dioxopiperidin-3-yl)-4-((2-fluoro-4-((3-morpholinoazetidin-1-yl)methyl)benzyl)amino)isoindoline-1,3-dione]	–	lowered cell viability more than treatment with CC-99282 alone	lowered cell viability more than treatment with CC-99282 alone	moderately responsive	moderately responsive	lowered cell viability more than treatment with CC-99282 alone	lowered cell viability more than treatment with CC-99282 alone
